Test: mn = molality of the nth substance listed, in mol/kg
Details: Liquid, Vibrating tube method

[Ca+2].[Cl-].[Cl-] [calcium chloride] + CCO
Details | mass density [kg/m3]
348.15 K, 20480 kPa, m1 = 0.1743 | 776.42
348.15 K, 20640 kPa, m1 = 1.55 | 872.48
348.15 K, 20670 kPa, m1 = 0.9896 | 834.64
348.15 K, 20840 kPa, m1 = 0.4379 | 796.01
348.15 K, 25040 kPa, m1 = 0.4379 | 799.76
348.15 K, 25060 kPa, m1 = 1.266 | 855.9
348.15 K, 25160 kPa, m1 = 0.09327 | 774.52
348.15 K, 25190 kPa, m1 = 1.55 | 876.08
348.15 K, 25620 kPa, m1 = 0.1743 | 781.15
348.15 K, 25740 kPa, m1 = 0.6899 | 818.02
348.15 K, 25940 kPa, m1 = 0.9896 | 839.09
348.15 K, 30420 kPa, m1 = 0.1743 | 785.25
348.15 K, 30480 kPa, m1 = 0.09327 | 779.14
348.15 K, 30610 kPa, m1 = 0.6899 | 821.98
348.15 K, 30610 kPa, m1 = 1.266 | 860.42
348.15 K, 30730 kPa, m1 = 0.4379 | 804.51
348.15 K, 30750 kPa, m1 = 1.55 | 880.1
348.15 K, 30860 kPa, m1 = 0.9896 | 842.93
348.15 K, 35150 kPa, m1 = 0.4379 | 807.92
348.15 K, 35290 kPa, m1 = 1.55 | 883.06
348.15 K, 35370 kPa, m1 = 0.9896 | 846.17
348.15 K, 35410 kPa, m1 = 0.09327 | 783.08
348.15 K, 35480 kPa, m1 = 1.266 | 864.22
348.15 K, 35640 kPa, m1 = 0.6899 | 825.77
348.15 K, 35860 kPa, m1 = 0.1743 | 789.53
348.15 K, 39260 kPa, m1 = 0.09327 | 785.92
348.15 K, 39380 kPa, m1 = 0.4379 | 810.96
348.15 K, 39490 kPa, m1 = 0.6899 | 828.45
348.15 K, 39880 kPa, m1 = 1.55 | 885.77
348.15 K, 39960 kPa, m1 = 1.266 | 867.59
348.15 K, 39970 kPa, m1 = 0.1743 | 792.5
348.15 K, 39970 kPa, m1 = 0.9896 | 849.2
373.15 K, 370 kPa, m1 = 0.09327 | 722.5
373.15 K, 390 kPa, m1 = 1.55 | 828.22
373.15 K, 420 kPa, m1 = 1.266 | 808.17
373.15 K, 680 kPa, m1 = 0.1743 | 728.72
373.15 K, 870 kPa, m1 = 0.6899 | 766.95
373.15 K, 920 kPa, m1 = 0.9896 | 788.74
373.15 K, 940 kPa, m1 = 0.4379 | 749.01
373.15 K, 4980 kPa, m1 = 1.266 | 813.49
373.15 K, 5040 kPa, m1 = 0.9896 | 794.18
373.15 K, 5060 kPa, m1 = 0.1743 | 735.26
373.15 K, 5140 kPa, m1 = 1.55 | 834.25
373.15 K, 5150 kPa, m1 = 0.6899 | 772.7
373.15 K, 5170 kPa, m1 = 0.4379 | 754.76
373.15 K, 5180 kPa, m1 = 0.09327 | 729.16
373.15 K, 9780 kPa, m1 = 1.266 | 818.85
373.15 K, 10150 kPa, m1 = 1.55 | 840.15
373.15 K, 10480 kPa, m1 = 0.09327 | 736.08
373.15 K, 10480 kPa, m1 = 0.4379 | 761.55
373.15 K, 10740 kPa, m1 = 0.1743 | 743.09
373.15 K, 10740 kPa, m1 = 0.6899 | 779.75
373.15 K, 10740 kPa, m1 = 0.9896 | 801.21
373.15 K, 15190 kPa, m1 = 0.4379 | 767.19
373.15 K, 15210 kPa, m1 = 0.6899 | 785.01
373.15 K, 15250 kPa, m1 = 0.1743 | 748.79
373.15 K, 15260 kPa, m1 = 1.266 | 824.65
373.15 K, 15290 kPa, m1 = 1.55 | 845.7
373.15 K, 15360 kPa, m1 = 0.9896 | 806.48
373.15 K, 15720 kPa, m1 = 0.09327 | 742.49
373.15 K, 20030 kPa, m1 = 1.266 | 829.44
373.15 K, 20140 kPa, m1 = 1.55 | 850.48
373.15 K, 20160 kPa, m1 = 0.4379 | 772.75
373.15 K, 20280 kPa, m1 = 0.09327 | 747.72
373.15 K, 20640 kPa, m1 = 0.1743 | 754.98
373.15 K, 20750 kPa, m1 = 0.9896 | 812.16
373.15 K, 20860 kPa, m1 = 0.6899 | 791.16
373.15 K, 25130 kPa, m1 = 0.4379 | 777.9
373.15 K, 25180 kPa, m1 = 0.1743 | 759.68
373.15 K, 25410 kPa, m1 = 1.266 | 834.54
373.15 K, 25670 kPa, m1 = 0.09327 | 753.48
373.15 K, 25750 kPa, m1 = 1.55 | 855.45
373.15 K, 25840 kPa, m1 = 0.6899 | 796.14
373.15 K, 25940 kPa, m1 = 0.9896 | 817.13
373.15 K, 29980 kPa, m1 = 1.266 | 838.62
373.15 K, 30140 kPa, m1 = 1.55 | 858.93
373.15 K, 30150 kPa, m1 = 0.6899 | 800.1
373.15 K, 30160 kPa, m1 = 0.9896 | 820.83
373.15 K, 30240 kPa, m1 = 0.4379 | 782.77
373.15 K, 30290 kPa, m1 = 0.09327 | 758.06
373.15 K, 30410 kPa, m1 = 0.1743 | 764.51
373.15 K, 35070 kPa, m1 = 1.266 | 842.89
373.15 K, 35370 kPa, m1 = 0.4379 | 787.22
373.15 K, 35420 kPa, m1 = 0.09327 | 762.76
373.15 K, 35480 kPa, m1 = 1.55 | 862.67
373.15 K, 35840 kPa, m1 = 0.6899 | 804.85
373.15 K, 35870 kPa, m1 = 0.1743 | 768.88
373.15 K, 35870 kPa, m1 = 0.9896 | 825.32
373.15 K, 39260 kPa, m1 = 0.4379 | 790.31
373.15 K, 39740 kPa, m1 = 0.1743 | 771.57
373.15 K, 39910 kPa, m1 = 0.09327 | 766.53
373.15 K, 39940 kPa, m1 = 0.6899 | 807.94
373.15 K, 39960 kPa, m1 = 0.9896 | 828.19
373.15 K, 39970 kPa, m1 = 1.266 | 846.74
373.15 K, 39970 kPa, m1 = 1.55 | 865.39
398.15 K, 620 kPa, m1 = 1.266 | 780.71
398.15 K, 680 kPa, m1 = 0.09327 | 692.59
398.15 K, 740 kPa, m1 = 1.55 | 801.26
398.15 K, 950 kPa, m1 = 0.4379 | 719.54
398.15 K, 970 kPa, m1 = 0.6899 | 737.62
398.15 K, 1030 kPa, m1 = 0.1743 | 700.75
398.15 K, 1060 kPa, m1 = 0.9896 | 760.33
398.15 K, 5070 kPa, m1 = 0.1743 | 707.51
398.15 K, 5070 kPa, m1 = 0.9896 | 766.76
398.15 K, 5100 kPa, m1 = 0.09327 | 700.41
398.15 K, 5160 kPa, m1 = 0.6899 | 744.53
398.15 K, 5180 kPa, m1 = 1.266 | 786.93
398.15 K, 5380 kPa, m1 = 0.4379 | 726.88
398.15 K, 5470 kPa, m1 = 1.55 | 808.33
398.15 K, 10020 kPa, m1 = 0.6899 | 752.01
398.15 K, 10060 kPa, m1 = 1.266 | 793.27
398.15 K, 10080 kPa, m1 = 0.09327 | 708.63
398.15 K, 10290 kPa, m1 = 0.4379 | 734.49
398.15 K, 10460 kPa, m1 = 1.55 | 815.02
398.15 K, 10540 kPa, m1 = 0.1743 | 716.08
398.15 K, 10540 kPa, m1 = 0.9896 | 774.89
398.15 K, 15240 kPa, m1 = 0.6899 | 759.43
398.15 K, 15290 kPa, m1 = 0.1743 | 722.99
398.15 K, 15290 kPa, m1 = 0.9896 | 781.35
398.15 K, 15410 kPa, m1 = 0.09327 | 716.75
398.15 K, 15610 kPa, m1 = 0.4379 | 742.12
398.15 K, 15620 kPa, m1 = 1.266 | 800.09
398.15 K, 15620 kPa, m1 = 1.55 | 821.29
398.15 K, 20030 kPa, m1 = 0.09327 | 723.21
398.15 K, 20080 kPa, m1 = 1.266 | 805.26
398.15 K, 20140 kPa, m1 = 0.1743 | 729.54
398.15 K, 20140 kPa, m1 = 1.55 | 826.33
398.15 K, 20410 kPa, m1 = 0.9896 | 787.68
398.15 K, 20480 kPa, m1 = 0.4379 | 748.53
398.15 K, 20620 kPa, m1 = 0.6899 | 766.4
398.15 K, 24980 kPa, m1 = 0.1743 | 735.56
398.15 K, 25060 kPa, m1 = 0.09327 | 729.63
398.15 K, 25080 kPa, m1 = 0.9896 | 792.89
398.15 K, 25340 kPa, m1 = 0.4379 | 754.4
398.15 K, 25340 kPa, m1 = 1.55 | 831.69
398.15 K, 25640 kPa, m1 = 1.266 | 811.31
398.15 K, 25890 kPa, m1 = 0.6899 | 772.57
398.15 K, 30030 kPa, m1 = 1.266 | 815.79
398.15 K, 30060 kPa, m1 = 0.4379 | 759.57
398.15 K, 30140 kPa, m1 = 0.6899 | 777.06
398.15 K, 30170 kPa, m1 = 0.09327 | 735.52
398.15 K, 30470 kPa, m1 = 1.55 | 836.6
398.15 K, 30740 kPa, m1 = 0.9896 | 798.47
398.15 K, 30780 kPa, m1 = 0.1743 | 742.1
398.15 K, 35180 kPa, m1 = 0.09327 | 740.65
398.15 K, 35180 kPa, m1 = 0.4379 | 764.61
398.15 K, 35460 kPa, m1 = 0.1743 | 746.84
398.15 K, 35740 kPa, m1 = 1.266 | 821.22
398.15 K, 35830 kPa, m1 = 1.55 | 841.39
398.15 K, 35940 kPa, m1 = 0.6899 | 782.51
398.15 K, 35970 kPa, m1 = 0.9896 | 802.93
398.15 K, 39290 kPa, m1 = 0.6899 | 785.29
398.15 K, 39380 kPa, m1 = 0.4379 | 768.3
398.15 K, 39760 kPa, m1 = 1.55 | 844.7
398.15 K, 39790 kPa, m1 = 0.1743 | 750.79
398.15 K, 39860 kPa, m1 = 0.9896 | 805.8
398.15 K, 39920 kPa, m1 = 0.09327 | 744.93
398.15 K, 39920 kPa, m1 = 1.266 | 824.91

— the NIST ThermoML archive (doi:10.1021/je800234h)
